Assays:
[1] = Chemical stability in HBSS buffer (pH 7.4) / simulated gastric fluid; format: physicochemical; conditions: for chemical stability: chemical hydrolysis / HBSS buffer; for Percentage remaining: HBSS, 10 μM, 37° C.
Method: The chemical stability of prodrugs was evaluated using simulated gastric fluid (pH 1.2) and Hanks' Balanced Salt Solution (HBSS) buffer (pH 7.4). Briefly, prodrugs were spiked (10 μM) in respective solutions and incubated at 37° C. for 1 h. At predetermined time points (0, 30 and 60 min), aliquots of 100 μL were removed and diluted with 100 μL of water. Prodrug disappearance was monitored using the developed liquid chromatography and tandem mass spectrometry (LC/MS/MS) method described below.
(§1) For LC/MS/MS, prodrugs were separated with Thermo Scientific Accela UPLC system coupled to Accela open autosampler on an Agilent C18 (100×2.1 mm id) UPLC column. The autosampler was temperature controlled and operating at 10° C. The mobile phase used for the chromatographic separation was composed of acetonitrile/water containing 0.1% formic acid and was run at a flow rate of 0.5 mL/minute for 4.5 minutes using gradient elution. The column effluent was monitored using TSQ Vantage triple-quadrupole mass spectrometric detector, equipped with an electrospray probe set in the positive ionization mode. Samples were introduced into the ionization source through a heated nebulized probe (350° C.).
(§2) For quantification of compound remaining, disappearance of prodrugs was measured from ratio of peak areas of analyte to IS. Percentage remaining was calculated in the following manner: […]

[2] = In vivo pharmacokinetics in mice, peroral, bioanalysis method 1 (total prodrug exposure); conditions: oral dosing; for permeability in vivo: mice
Method: Blood was obtained via cardiac puncture and tissue dissected at 0 min, 15 min, 30 min, 1 h, 2 h, and 4 h post dose (n=3 per time point). Single time point studies were conducted at 30 min (N=3) following dosing. Plasma was harvested from blood by centrifugation. Mean concentration-time data was used for pharmacokinetic (PK) analysis. Non-compartmental-analysis module in WinNonlin® (version 5.3) was used to assess pharmacokinetic parameters. Peak plasma concentrations (Cmax) and time to Cmax (Tmax) were the observed values. Area under the curve (AUC) was calculated by log-linear (p.o.) trapezoidal rule to the end of sample collection (AUClast) and extrapolated to infinity (AUC0-∞) by dividing the last quantifiable concentration by the terminal disposition rate constant (ke). Terminal half-life (t1/2) was estimated from first order kinetics: t1/2=0.693/ke.
Briefly, prior to extraction, frozen samples were thawed on ice. For plasma extraction, 50 μL of the calibration standards or samples were transferred into silanized microcentrifuge tubes. Sample preparation involved a single liquid extraction by addition of 300 μL of methanol as extraction solution with internal standard (i.e., 5 μM of 2-PMSA in methanol), followed by vortexing for 30 s and then centrifugation at 12000 g for 10 min. Supernatant was transferred (˜250 μL) and evaporated to dryness at 40° C. under a gentle stream of nitrogen. The residue was reconstituted with 100 μL of derivatizing agent, n-butanol with 3N HCl, and samples were vortexed. The samples were heated at ˜60 OC in a shaking water bath for 30 min. At the end of 30 min, the derivatized samples were allowed to cool at room temperature and dried again for removal of derivatizing reagent, under a gentle stream of nitrogen. The residue was reconstituted in 100 μL of 30% acetonitrile in water v/v. The samples were vortexed and centrifuged again. ˜80 μL supernatant was transferred to a 250 μL polypropylene vial sealed with a Teflon cap and a volume of 10 μL was injected onto the ultra-performance liquid chromatography (UPLC) instrument for quantitative analysis. Chromatographic analysis was performed using an Accela™ ultra high-performance system consisting of an analytical pump, and an autosampler coupled with TSQ Vantage mass spectrometer (Thermo Fisher Scientific Inc., Waltham Mass.). […] The mobile phase used was composed of 0.1% formic acid in acetonitrile and 0.1% formic acid in H2O with gradient elution, starting with 20% (organic) linearly increasing to 65% up to 2.5 min, maintaining at 65% (2.5-3.5 min) and reequilibrating to 30% by 5 min. The total run time for each analyte was 5.0 min.

[3] = Metabolic stability in mouse plasma; format: in vitro ADME; conditions: 10 μM, 37° C.
Method: (§3) For metabolic stability, plasma (mouse, dog, monkey and human) and liver microsomes (mouse, dog, monkey and human) were used. For stability, prodrugs (10 μM) were spiked in each matrix and incubated in an orbital shaker at 37° C. At predetermined times (0, 30 and 60 min), 100 μL aliquots of the mixture in triplicate were removed and the reaction quenched by addition of three times the volume of ice cold acetonitrile spiked with the internal standard (losartan 5 μM). The samples were vortexed for 30 s and centrifuged 12000 g for 10 min. 50 μL supernatant diluted with 50 μL water was transferred to a 250 μL polypropylene vial sealed with a Teflon cap. Prodrug disappearance was monitored over time using a liquid chromatography and tandem mass spectrometry (LC/MS/MS) method as described below.
as §1, §2

[4] = Metabolic stability in mouse liver microsomes; format: in vitro ADME; conditions: 10 μM, 37° C.
Method: as §3, §1, §2

[5] = Metabolic stability in human plasma; format: in vitro ADME; conditions: 10 μM, 37° C.
Method: as §3, §1, §2

[6] = Metabolic stability in human liver microsomes; format: in vitro ADME; conditions: 10 μM, 37° C.
Method: as §3, §1, §2

[7] = Metabolic stability in mouse liver S9; format: in vitro ADME; conditions: Mouse S9, 10 μM, 37° C.
[8] = In vitro metabolic stability screen in plasma and liver subcellular fractions (results in words); format: in vitro ADME; conditions: 60 min incubation
Method: as §3, §1
For quantification of compound remaining, disappearance of prodrugs was measured from ratio of peak areas of analyte to IS. Percentage remaining was calculated in the following manner:
In general, the prodrugs were screened by an in vitro metabolic stability screen, and if positive, followed by an in vivo single time point pharmacokinetic study, and in select cases, an in vivo full time course pharmacokinetic study (FIG. 3). In this Example, the four acidic functional groups in 2-PMPA were systematically capped. The carboxylic acids were first masked with simple alkyl esters (Compounds 1, 2, and 3). In vitro chemical and metabolic stability of the prodrugs then were conducted, following 60 min incubation in plasma stability screens for prodrugs.

CC(C)OC(=O)OCOP(=O)(CC(CCC(=O)O)C(=O)O)OCOC(=O)OC(C)C (stereo not shown) [Compound 4]
chemical stability [1]: chemical instability

CCCCOC(=O)c1ccccc1OP(=O)(CC(CCC(=O)O)C(=O)OC)Oc1ccccc1C(=O)OCCCC (stereo not shown) [Compound 21, 4-({Bis[2-(butoxycarbonyl)phenoxy]phosphoryl}methyl)-5-methoxy-5-oxopentanoic acid]
permeability in vivo [2]: did not show a high permeability in vivo

COC(=O)C(CCC(=O)O)CP(=O)(OCOC(=O)C(C)(C)C)OCOC(=O)C(C)(C)C (stereo not shown) [Compound 8, 4-({Bis[(pivaloyloxy)methoxy]phosphoryl}methyl)-5-methoxy-5-oxopentanoic acid]
oral availability of prodrug [2]: good oral availability

CC(C)OC(=O)OCOP(=O)(CC(CCC(=O)O)C(=O)OCC(=O)N(C)C)OCOC(=O)OC(C)C (stereo not shown) [Compound 25]
Percentage remaining ([3]; 0 min): 100%
Percentage remaining ([3]; 30 min): 0%
Percentage remaining ([3]; 60 min): 0%
Percentage remaining ([4]; 0 min): 100%
Percentage remaining ([4]; 30 min): 49%
Percentage remaining ([4]; 60 min): 22%
Percentage remaining ([5]; 0 min): 100%
Percentage remaining ([5]; 30 min): 109%
Percentage remaining ([5]; 60 min): 76%
Percentage remaining ([6]; 0 min): 100%
Percentage remaining ([6]; 30 min): 80%
Percentage remaining ([6]; 60 min): 61%

CCCCCCCCCCCCCCCCOCCCOP(=O)(CC(CCC(=O)O)C(=O)O)OCCCOCCCCCCCCCCCCCCCC (stereo not shown) [Compound 12, 2-((Bis(3-(hexadecyloxy)propoxy)phosphoryl)methyl)pentanedioic acid]
chemical stability [1]: sufficient chemical stability

COC(=O)CCC(CP(=O)(OCOC(=O)C(C)(C)C)OCOC(=O)C(C)(C)C)C(=O)OCOC(=O)C(C)(C)C (stereo not shown) [Compound 11]
chemical stability [1]: sufficient chemical stability

CCCCOC(=O)c1ccccc1OP(=O)(CC(CCC(=O)OC)C(=O)OC)Oc1ccccc1C(=O)OCCCC (stereo not shown) [Compound 16, Dimethyl 2-({bis[2-(butoxycarbonyl)phenoxy]phosphoryl}methyl)pentanedioate]
Percentage remaining ([1]; 0 min): 100%
Percentage remaining ([1]; 30 min): 100%
Percentage remaining ([1]; 60 min): 95%
chemical stability [1]: stable in HBSS buffer
Percentage remaining ([3]; 0 min): 100%
Percentage remaining ([3]; 30 min): 3%
Percentage remaining ([3]; 60 min): 1%
Percentage remaining ([7]; 0 min): 100%
Percentage remaining ([7]; 30 min): 1%
Percentage remaining ([7]; 60 min): 2%
Percentage remaining ([4]; 0 min): 100%
Percentage remaining ([4]; 30 min): 3%
Percentage remaining ([4]; 60 min): 2%

CC(C)OC(=O)OC(C)OP(=O)(CC(CCC(=O)O)C(=O)OCC(=O)N(C)C)OC(C)OC(=O)OC(C)C (stereo not shown) [Compound 26]
Percentage remaining ([3]; 0 min): 100%
Percentage remaining ([3]; 30 min): 3%
Percentage remaining ([3]; 60 min): 1%
Percentage remaining ([4]; 0 min): 100%
Percentage remaining ([4]; 30 min): 86%
Percentage remaining ([4]; 60 min): 68%
Percentage remaining ([5]; 0 min): 100%
Percentage remaining ([5]; 30 min): 98%
Percentage remaining ([5]; 60 min): 92%
Percentage remaining ([6]; 0 min): 100%
Percentage remaining ([6]; 30 min): 92%
Percentage remaining ([6]; 60 min): 81%

CC(C)(C)C(=O)OCOP(=O)(CC(CCC(=O)O)C(=O)O)OCOC(=O)C(C)(C)C (stereo not shown) [Compound 5]
chemical stability [1]: chemical instability

COC(=O)CCC(CP(=O)(OCOC(=O)C(C)(C)C)OCOC(=O)C(C)(C)C)C(=O)OC (stereo not shown) [Compound 14]
Percentage remaining ([1]; 0 min): 100%
Percentage remaining ([1]; 30 min): 46%
Percentage remaining ([1]; 60 min): 21%
chemical stability [1]: fall apart easily even in HBSS buffer
Percentage remaining ([3]; 0 min): 100%
Percentage remaining ([3]; 30 min): 0%
Percentage remaining ([3]; 60 min): 0%
Percentage remaining ([7]; 0 min): 100%
Percentage remaining ([7]; 30 min): 1%
Percentage remaining ([7]; 60 min): 0%
Percentage remaining ([4]; 0 min): 100%
Percentage remaining ([4]; 30 min): 2%
Percentage remaining ([4]; 60 min): 0%
permeability in vivo [2]: most permeable

CCOCCOCCOCCOCCOCCOCCOP(=O)(CC(CCC(=O)OC)C(=O)OC)OCCOCCOCCOCCOCCOCCOCC (stereo not shown) [Compound 13, Dimethyl 2-((bis((3,6,9,12,15,18-hexaoxaicosyl)oxy)phosphoryl)methyl)pentanedioate]
Percentage remaining ([1]; 0 min): 100%
Percentage remaining ([1]; 30 min): 99%
Percentage remaining ([1]; 60 min): 101%
Percentage remaining ([3]; 0 min): 100%
Percentage remaining ([3]; 30 min): 2%
Percentage remaining ([3]; 60 min): 1%
Percentage remaining ([7]; 0 min): 100%
Percentage remaining ([7]; 30 min): 106%
Percentage remaining ([7]; 60 min): 100%
Percentage remaining ([4]; 0 min): 100%
Percentage remaining ([4]; 30 min): 99%
Percentage remaining ([4]; 60 min): 100%
in vitro metabolic stability [8]: too stable in some of the samples

COC(=O)C(CCC(=O)O)CP(=O)(O)O (stereo not shown) [Compound 9]
oral availability of prodrug [2]: good oral availability

CCOC(=O)[C@H](Cc1ccccc1)NP(=O)(CC(CCC(=O)OC)C(=O)OC)N[C@@H](Cc1ccccc1)C(=O)OCC (stereo partly drawn) [Compound 17, Dimethyl 2-((bis(((S)-1-ethoxy-1-oxo-3-phenylpropan-2-yl)amino)phosphoryl)methyl)pentanedioate]
Percentage remaining ([1]; 0 min): 100%
Percentage remaining ([1]; 30 min): 93%
Percentage remaining ([1]; 60 min): 93%
chemical stability [1]: stable in HBSS buffer
Percentage remaining ([3]; 0 min): 100%
Percentage remaining ([3]; 30 min): 2%
Percentage remaining ([3]; 60 min): 1%
Percentage remaining ([7]; 0 min): 100%
Percentage remaining ([7]; 30 min): 0%
Percentage remaining ([7]; 60 min): 0.1%
Percentage remaining ([4]; 0 min): 100%
Percentage remaining ([4]; 30 min): 2%
Percentage remaining ([4]; 60 min): 0.1%

CCCCCCCCCCOP(=O)(CC(CCC(=O)O)C(=O)OC)OCCCCCCCCCC (stereo not shown) [Compound 22, 4-{[Bis(decyloxy)phosphoryl]methyl}-5-methoxy-5-oxopentanoic acid]
permeability in vivo [2]: did not show a high permeability in vivo

Reference: patent publication US9988407B2, “Prodrugs of prostate specific membrane antigen (PSMA) inhibitor” (THE JOHNS HOPKINS UNIVERSITY, priority 2014, dated 2018)
